Like-named read-outs stand apart in the source and are kept apart here. Marks after values point to notes of the source that are not given here.
What was measured:
CYP3A = conditions: cited from earlier work
[1] = cited from earlier work; for F %: Table of Tyrosine Kinase Inhibitor Substrates, CYP3A4
[2] = cited from earlier work; for T½: Table of Tyrosine Kinase Inhibitor Substrates
plasma protein = conditions: cited from earlier work; for Protein binding %: Table of Tyrosine Kinase Inhibitor Substrates
CYP3A5 [3] = molecular target: T1, CYP3A5 (Homo sapiens, UniProt P20815); conditions: cited from earlier work
CYP3A5 [4] = molecular target: T1, CYP3A5; assay: Tacrolimus metabolism by rhCYP3A5 (Kamdem et al. 2005); assay type: in vitro ADME; conditions: rhCYP3A5 vs rhCYP3A4
[5] = cited from earlier work
[6] = test system: human liver microsomes (HLM, Xenotech); conditions: cited from earlier work
[7] = Eplerenone metabolism via pooled human liver microsomes (HLM150); assay type: in vitro ADME; conditions: human, pooled human liver microsomes (HLM150, 150 donors), HLM 150, Corning/BD
[8] = test system: human liver microsomes (HLM150); assay: as above; assay type: in vitro ADME; conditions: for Vmax: HLM 150, Corning/BD
[9] = substrate: COC(=O)[C@@H]1CC2=CC(=O)CC[C@]2(C)[C@@]23O[C@@H]2C[C@@]2(C)[C@@H](CC[C@@]24CCC(=O)O4)[C@H]13; assay: cells, lysate or membranes named; assay type: in vitro ADME, human

In the case of C=C[C@H]1C[N@@]2CC[C@H]1C[C@@H]2[C@@H](O)c1ccnc2ccc(OC)cc12 [Quinidine], the “All CYP3A (% Metabolism)” value (CYP3A) is given as 93% and the “ORAL BIOAVAILABILITY” value ([1]; Table CYP3A4) is given as 70-80% ^.

In the case of Cc1ccc(Nc2nccc(N(C)c3ccc4c(C)n(C)nc4c3)n2)cc1S(N)(=O)=O [pazopanib], the T½ [2] is given as 30.9 to 31.9 h, the Protein binding % (plasma protein) is given as >99.5% and the F % [1] is given as 14-21%.

In the case of Cc1nnc2n1-c1ccc(Cl)cc1C(c1ccccc1)=NC2 [Alprazolam], the “All CYP3A (% Metabolism)” value (CYP3A) is listed as 62% and the “CYP3A5 (% Metabolism)” value (CYP3A5 [3]) is listed as <10%.

For CCN(CC)CCNC(=O)c1c(C)[nH]c(/C=C2\C(=O)Nc3ccc(F)cc32)c1C [Sunitinib], the T½ [2] is listed as 40 to 60 h, the Protein binding % (plasma protein) is listed as 95% and the F % [1] is listed as 50%.

In the case of C=CC[C@@H]1/C=C(\C)C[C@H](C)C[C@H](OC)[C@H]2O[C@@](O)(C(=O)C(=O)N3CCCC[C@H]3C(=O)O[C@H](/C(C)=C/[C@@H]3CC[C@@H](O)[C@H](OC)C3)[C@H](C)[C@@H](O)CC1=O)[C@H](C)C[C@@H]2OC [Tacrolimus], the “higher catalytic efficiency via CYP3A5” value (CYP3A5 [4]) is listed as 60% and the “ORAL BIOAVAILABILITY” value ([1]; Table CYP3A4) is listed as 17-31% ^.

In the case of COC(=O)[C@H]1[C@H]2[C@@H]3CC[C@@]4(CCC(=O)O4)[C@@]3(C)C[C@H]3O[C@@]23[C@@]2(C)CCC(=O)C=C2[C@@H]1O [6OH-EP, 6β-hydroxyeplerenone], the “Compound Type” value ([5]; SimCYP model parameter) is given as “Neutral” and the Blood/plasma ratio [5] is given as 1.

For CNC(=O)c1cc(Oc2ccc(NC(=O)Nc3ccc(Cl)c(C(F)(F)F)c3)cc2)ccn1 [sorafenib], the T½ [2] is listed as 25 to 48 h, the Protein binding % (plasma protein) is listed as 99.5% and the F % [1] is listed as 38-49%.

For COC(=O)[C@@H]1CC2=CC(=O)CC[C@]2(C)[C@@]23O[C@@H]2C[C@@]2(C)[C@@H](CC[C@@]24CC(O)C(=O)O4)[C@H]13 (some centres unmarked) [21OH-EP, 21-hydroxyeplerenone], the “Compound Type” value ([5]; SimCYP model parameter) is listed as “Neutral” and the Blood/plasma ratio [5] is listed as 1.

For C#Cc1cccc(Nc2ncnc3cc(OCCOC)c(OCCOC)cc23)c1 [Erlotinib], the Protein binding % (plasma protein) is given as 95%.

For CN1C(C(=O)Nc2ccccn2)=C(O)c2sc(Cl)cc2S1(=O)=O [Lomoxicam], the “HALF LIFE” value ([2]; in vivo) is listed as 4 h and the “BIOAVAILABILITY IM” value ([1]; in vivo, im) is listed as “IM: 87%”.

For CCCCCc1cc(O)c2c(c1)OC(C)(C)[C@@H]1CCC(C)=C[C@@H]21 [THC], the “HALF LIFE” value ([2]; Table CYP2C9) is listed as 1.6 to 59 h and the “ORAL BIOAVAILABILITY” value ([1]; Table CYP2C9) is listed as 10-35% ^.

In the case of CC(C)(C)NC(=O)[C@@H]1C[C@@H]2CCCC[C@@H]2CN1C[C@@H](O)[C@H](Cc1ccccc1)NC(=O)[C@H](CC(N)=O)NC(=O)c1ccc2ccccc2n1 [Saquinavir], the “All CYP3A (% Metabolism)” value (CYP3A) is given as 99% and the “CYP3A5 (% Metabolism)” value (CYP3A5 [3]) is given as 11%.

In the case of Cc1ncc2n1-c1ccc(Cl)cc1C(c1ccccc1F)=NC2 [Midazolam], the “All CYP3A (% Metabolism)” value (CYP3A) is given as 92%, the “CYP3A5 (% Metabolism)” value (CYP3A5 [3]) is given as 43% and the “AUC fold higher than average” value (CYP3A4/5) is given as 2.3 fold. The “AUC fold lower than the mean” value (CYP3A4/5) was 4.1 fold.

For CNC1(c2ccccc2Cl)CCCCC1=O (centres unmarked) [Ketamine], the “HALF LIFE” value ([2]; in vivo) is given as 2 to 3 h and the “BIOAV[…]” value ([1]; in vivo, im) is given as “IM: 90-93%, PO: 16%”.

For OC(CNCC(O)C1CCc2cc(F)ccc2O1)C1CCc2cc(F)ccc2O1 (centres unmarked) [Nebivolol], the “HALF LIFE” value ([2]; Table CYP2D6) is listed as 12 to 19 h and the “ORAL BIOAVAILABILITY” value ([1]; Table CYP2D6) is listed as 12-96% ^.

For CCCN1CCCC[C@H]1C(=O)Nc1c(C)cccc1C [Ropivacaine], the “HALF LIFE” value ([2]; Table CYP1A2) is given as 5 to 7 h and the “ORAL BIOAVAILABILITY” value ([1]; Table CYP1A2, printed as IV) is given as 87-98% - IV.

For CC(=O)[C@H]1CC[C@H]2[C@@H]3CCC4=CC(=O)CC[C@]4(C)[C@H]3CC[C@]12C [Progesterone], the “PLASMA PROTEIN BINDING” value (plasma protein; Table CYP2C19) is given as 96-99% ^.

In the case of [H]/N=C(/N)N/C(=N/[H])NCCc1ccccc1 [Phenformin], the “HALF LIFE” value ([2]; Table CYP2D6) is listed as 4 to 13 h and the “ORAL BIOAVAILABILITY” value ([1]; Table CYP2D6) is listed as 40-60% ^.

In the case of CC(C)(O)c1ccccc1CC[C@@H](SCC1(CC(=O)O)CC1)c1cccc(/C=C/c2ccc3ccc(Cl)cc3n2)c1 [Montelukast], the “HALF LIFE” value ([2]; Table CYP2C9) is given as 2.7 to 5.5 h, the “PLASMA PROTEIN BINDING” value (plasma protein; Table CYP2C9) is given as >99% and the “ORAL BIOAVAILABILITY” value ([1]; Table CYP2C9) is given as 64-73% ^.

In the case of O=C1NC(=O)C(c2ccccc2)(c2ccccc2)N1 [Phenytoin], the “HALF LIFE” value ([2]; Table CYP2C9) is given as 14 to 22 h and the “ORAL BIOAVAILABILITY” value ([1]; Table CYP2C9) is given as 20-90% ^.

In the case of COc1ccccc1OCCNCC(O)COc1cccc2[nH]c3ccccc3c12 (centres unmarked) [Carvedilol], the “HALF LIFE” value ([2]; Table CYP2D6) is listed as 6 to 10 h and the “ORAL BIOAVAILABILITY” value ([1]; Table CYP2D6) is listed as 25-35% ^.

For Cc1nnc2n1-c1ccc(Cl)cc1C(c1ccccc1Cl)=NC2 [Triazolam], the “All CYP3A (% Metabolism)” value (CYP3A) is listed as 92% and the “CYP3A5 (% Metabolism)” value (CYP3A5 [3]) is listed as 25%.

In the case of COc1cc2ncnc(Nc3ccc(F)c(Cl)c3)c2cc1OCCCN1CCOCC1 [Gefitinib], the T½ [2] is listed as 6 to 49 h, the Protein binding % (plasma protein) is listed as 90% and the F % [1] is listed as 59%.

In the case of COC(=O)[C@@H]1CC2=CC(=O)CC[C@]2(C)[C@@]23O[C@@H]2C[C@@]2(C)[C@@H](CC[C@@]24CCC(=O)O4)[C@H]13 [Eplerenone], the “Permeability model Caco-2” value ([5]; Caco-2) is listed as “Caco-2 (24* 10^−6 cm/s)”, the “Compound Type” value ([5]; SimCYP model parameter) is listed as “Neutral” and the “ka” value ([5]; SimCYP model parameter) is listed as 1.647 h⁻¹. The Km ([6]; 6β-OH metabolite formation) was 217 µM, the Vmax ([6]; 6β-OH metabolite formation) was 973 pmol/min/mg and the Km ([6]; 21-OH metabolite formation) was 211 µM. The Vmax ([6]; 21-OH metabolite formation) was 143 pmol/min/mg, the Km at 10 min ([7]; 6β-OH metabolite formation) was 473 µM and the Km at 10 min ([7]; 21-OH metabolite formation) was 197 µM. For the same molecule, the Vmax ([8]; 6β-OH metabolite formation) was 1493 pmol/min/mg, the Vmax ([8]; 21-OH metabolite formation) was 216 pmol/min/mg and the “ISEF for recombinant CYP3A4/5” value ([8]; HLM 150 vs rhCYP3A4 and rhCYP3A5 clearances, Eq. 1) was 1.0.

B1: rhCYP3A5 (Homo sapiens) (protein)
chain: MDLIPNLAVETWLLLAVSLVLLYLYGTRTHGLFKRLGIPGPTPLPLLGNVLSYRQGLWKFDTECYKKYGKMWGTYEGQLPVLAITDPDVIRTVLVKECYSVFTNRRSLGPVGFMKSAISLAEDEEWKRIRSLLSPTFTSGKLKEMFPIIAQYGDVLVRNLRREAEKGKPVTLKDIFGAYSMDVITGTSFGVNIDSLNNPQDPFVESTKKFLKFGFLDPLFLSIILFPFLTPVFEALNVSLFPKDTINFLSKSVNRMKKSRLNDKQKHRLDFLQLMIDSQNSKETESHKALSDLELAAQSIIFIFAGYETTSSVLSFTLYELATHPDVQQKLQKEIDAVLPNKAPPTYDAVVQMEYLDMVVNETLRLFPVAIRLERTCKKDVEINGVFIPKGSMVVIPTYALHHDPKYWTEPEEFRPERFSKKKDSIDPYIYTPFGTGPRNCIGMRFALMNMKLALIRVLQNFSFKPCKETQIPLKLDTQGLLQPEKPIVLKVDSRDGTLSGE
notes: purchased BD Biosciences/Corning
Molecule B1 has a Km ([9]; other: 6β-OH metabolite formation, rhCYP3A5 (printed rhCYPA5)) of 142 mcM and a Km ([9]; other: 21-OH metabolite formation, rhCYP3A5) of 72 mcM.
